These results are taken from US20070149523A1, “Thiazole Analogues and Uses Thereof” (priority 2005, published 2007).

Holding throughout (assay): In vitro protein kinase assay (radioisotopic 33P, FlashPlate)
Holding throughout (type): biochemical
Holding throughout (conditions): recombinant human kinase

The target in one assay is VEGF-R2 (Homo sapiens, UniProt P35968). Also noted: made in house; host or cells: Sf9 insect cells (baculovirus). As to the method:
(§1) The effect of the thiazole derivatives was tested on recombinant, human protein kinases in in vitro protein kinase assays.
(§2) The protein kinases were expressed in Sf9 insect cells as human recombinant GST-fusion proteins or as His-tagged proteins by means of the baculovirus expression system.
(§3) The kinase activity was measured with a radioisotopic protein kinase assay by measuring the incorporation of ^33P-phosphate into proteins or peptide substrates. The assays were performed in FlashPlate™ microtiter scintillation plates and incorporation of ^33P-phosphate was determined with a microplate scintillation counter.

For the next assay, the target named is PDGF-Rβ (Homo sapiens, UniProt P09619). The arrangement: made in house; host or cells: Sf9 insect cells (baculovirus). As to the method:
as §1, §2, §3

The next assay deals with Aurora B (Homo sapiens, UniProt Q96GD4). Also noted: made in house; host or cells: Sf9 insect cells (baculovirus). As to the method:
as §1, §2, §3

The target of the next assay is T1, VEGF-R3 (Homo sapiens, UniProt P35916).
T1 construct: made in house; host or cells: Sf9 insect cells (baculovirus)
As to the method:
as §1, §2, §3

For a further assay, the target named is T2, IRAK4 (Homo sapiens, UniProt Q9NWZ3).
T2 construct: made in house; host or cells: Sf9 insect cells (baculovirus)
T2 sequence (Q9NWZ3 1-460): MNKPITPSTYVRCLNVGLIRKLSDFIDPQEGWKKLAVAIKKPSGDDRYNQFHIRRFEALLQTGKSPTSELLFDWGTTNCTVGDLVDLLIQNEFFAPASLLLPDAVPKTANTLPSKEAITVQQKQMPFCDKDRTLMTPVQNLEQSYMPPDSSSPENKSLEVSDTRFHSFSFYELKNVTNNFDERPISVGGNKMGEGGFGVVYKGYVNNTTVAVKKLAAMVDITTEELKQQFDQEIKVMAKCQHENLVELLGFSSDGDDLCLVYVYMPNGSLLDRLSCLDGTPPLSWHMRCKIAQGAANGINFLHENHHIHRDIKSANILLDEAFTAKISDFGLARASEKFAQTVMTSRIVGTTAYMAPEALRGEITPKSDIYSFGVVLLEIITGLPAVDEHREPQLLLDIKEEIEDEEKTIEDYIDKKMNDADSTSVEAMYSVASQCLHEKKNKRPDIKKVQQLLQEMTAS
The method, then:
as §1, §2, §3

Another assay has as its target T3, TRK-A (Homo sapiens, UniProt P04629).
T3 construct: made in house; host or cells: Sf9 insect cells (baculovirus)
As to the method: as §1, §2, §3

Another assay deals with T4, TIE2 (Homo sapiens, UniProt Q02763).
T4 construct: made in house; host or cells: Sf9 insect cells (baculovirus)
As to the method: as §1, §2, §3

A further assay has as its target T5, EGF-R (Homo sapiens, UniProt P00533).
T5 construct: made in house; host or cells: Sf9 insect cells (baculovirus)
The method, then: as §1, §2, §3

For a further assay, the target named is T6, RET (Homo sapiens, UniProt P07949).
T6 construct: made in house; host or cells: Sf9 insect cells (baculovirus)
As to the method: as §1, §2, §3

The next assay addresses T7, PDGF-Rα (Homo sapiens, UniProt P16234).
T7 construct: made in house; host or cells: Sf9 insect cells (baculovirus)
As to the method:
as §1, §2, §3

For the next assay, the target named is T8, VEGF-R1 (Homo sapiens, UniProt P17948).
T8 construct: made in house; host or cells: Sf9 insect cells (baculovirus)
The method, then: as §1, §2, §3

In a further assay the target is T9, Aurora A (Homo sapiens, UniProt O14965).
T9 construct: made in house; host or cells: Sf9 insect cells (baculovirus)
T9 sequence (O14965 1-403): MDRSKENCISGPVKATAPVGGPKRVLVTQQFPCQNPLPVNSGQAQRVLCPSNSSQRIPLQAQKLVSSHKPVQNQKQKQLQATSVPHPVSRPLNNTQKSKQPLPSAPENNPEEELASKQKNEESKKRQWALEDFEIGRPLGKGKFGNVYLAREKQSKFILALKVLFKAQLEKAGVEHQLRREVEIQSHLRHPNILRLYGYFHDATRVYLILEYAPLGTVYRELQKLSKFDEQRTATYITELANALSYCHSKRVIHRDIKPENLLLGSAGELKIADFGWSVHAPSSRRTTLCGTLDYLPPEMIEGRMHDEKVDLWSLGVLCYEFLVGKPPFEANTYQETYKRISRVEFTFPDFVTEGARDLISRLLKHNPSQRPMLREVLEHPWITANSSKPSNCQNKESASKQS
The method, then:
as §1, §2, §3

In another assay the target is T10, LCK (Homo sapiens, UniProt P06239).
T10 construct: made in house; host or cells: Sf9 insect cells (baculovirus)
The method, then:
as §1, §2, §3

Another assay addresses T11, KIT (Homo sapiens, UniProt P10721).
T11 construct: made in house; host or cells: Sf9 insect cells (baculovirus)
As to the method:
as §1, §2, §3

Another assay has as its target T12, FLT3 (Homo sapiens, UniProt P36888).
T12 construct: made in house; host or cells: Sf9 insect cells (baculovirus)
T12 sequence (P36888 27-993): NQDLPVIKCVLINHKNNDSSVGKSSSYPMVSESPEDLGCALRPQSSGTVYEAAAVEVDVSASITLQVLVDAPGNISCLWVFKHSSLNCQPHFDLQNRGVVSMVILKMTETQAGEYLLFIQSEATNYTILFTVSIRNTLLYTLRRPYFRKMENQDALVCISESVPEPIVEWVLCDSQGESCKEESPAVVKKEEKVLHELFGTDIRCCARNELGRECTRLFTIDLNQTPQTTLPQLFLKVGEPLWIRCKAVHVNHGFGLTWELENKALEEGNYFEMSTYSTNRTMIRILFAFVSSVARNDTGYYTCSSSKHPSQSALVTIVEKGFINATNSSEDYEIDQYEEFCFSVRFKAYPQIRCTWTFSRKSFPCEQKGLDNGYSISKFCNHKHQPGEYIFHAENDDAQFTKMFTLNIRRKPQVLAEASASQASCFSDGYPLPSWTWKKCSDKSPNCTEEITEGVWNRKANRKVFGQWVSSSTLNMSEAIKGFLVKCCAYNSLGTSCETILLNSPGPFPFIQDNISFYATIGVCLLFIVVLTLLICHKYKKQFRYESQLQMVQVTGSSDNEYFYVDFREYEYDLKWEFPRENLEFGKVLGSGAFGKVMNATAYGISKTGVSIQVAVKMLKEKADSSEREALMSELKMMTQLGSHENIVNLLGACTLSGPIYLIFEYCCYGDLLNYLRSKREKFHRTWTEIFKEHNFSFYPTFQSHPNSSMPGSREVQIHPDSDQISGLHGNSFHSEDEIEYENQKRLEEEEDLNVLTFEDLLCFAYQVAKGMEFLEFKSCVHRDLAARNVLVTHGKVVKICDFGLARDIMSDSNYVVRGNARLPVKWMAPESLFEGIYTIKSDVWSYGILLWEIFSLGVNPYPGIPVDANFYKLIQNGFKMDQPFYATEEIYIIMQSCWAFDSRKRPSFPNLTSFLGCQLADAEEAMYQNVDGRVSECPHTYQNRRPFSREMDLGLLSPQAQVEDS
The method, then:
as §1, §2, §3

Chain of PDGF-Rβ (P09619 33-1106): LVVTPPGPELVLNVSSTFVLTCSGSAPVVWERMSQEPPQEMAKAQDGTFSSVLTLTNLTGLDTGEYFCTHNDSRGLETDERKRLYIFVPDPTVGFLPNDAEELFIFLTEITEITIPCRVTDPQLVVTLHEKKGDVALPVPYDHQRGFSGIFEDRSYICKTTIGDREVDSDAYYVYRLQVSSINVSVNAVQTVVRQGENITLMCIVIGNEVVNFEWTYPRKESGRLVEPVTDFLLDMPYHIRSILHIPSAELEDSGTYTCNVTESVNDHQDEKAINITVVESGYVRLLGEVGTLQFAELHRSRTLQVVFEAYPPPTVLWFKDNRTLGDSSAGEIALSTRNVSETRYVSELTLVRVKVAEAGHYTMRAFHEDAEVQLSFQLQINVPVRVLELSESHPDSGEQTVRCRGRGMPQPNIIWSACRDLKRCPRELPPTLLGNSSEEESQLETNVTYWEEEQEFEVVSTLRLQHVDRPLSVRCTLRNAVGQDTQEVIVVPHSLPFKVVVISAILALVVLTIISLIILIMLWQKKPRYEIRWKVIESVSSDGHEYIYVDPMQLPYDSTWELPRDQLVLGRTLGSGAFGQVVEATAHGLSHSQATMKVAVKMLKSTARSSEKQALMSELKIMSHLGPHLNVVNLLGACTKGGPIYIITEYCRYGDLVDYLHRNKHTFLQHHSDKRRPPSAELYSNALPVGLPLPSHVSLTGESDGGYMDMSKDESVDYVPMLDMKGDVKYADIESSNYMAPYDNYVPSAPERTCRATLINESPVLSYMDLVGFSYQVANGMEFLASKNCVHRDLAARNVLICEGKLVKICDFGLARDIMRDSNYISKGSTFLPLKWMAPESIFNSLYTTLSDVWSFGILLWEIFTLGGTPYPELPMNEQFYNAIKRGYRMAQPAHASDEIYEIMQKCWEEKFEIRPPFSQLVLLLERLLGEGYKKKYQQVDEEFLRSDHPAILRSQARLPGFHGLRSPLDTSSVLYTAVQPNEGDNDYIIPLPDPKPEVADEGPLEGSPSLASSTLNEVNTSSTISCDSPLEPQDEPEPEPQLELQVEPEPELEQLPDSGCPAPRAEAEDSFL
T3 sequence (P04629 33-796): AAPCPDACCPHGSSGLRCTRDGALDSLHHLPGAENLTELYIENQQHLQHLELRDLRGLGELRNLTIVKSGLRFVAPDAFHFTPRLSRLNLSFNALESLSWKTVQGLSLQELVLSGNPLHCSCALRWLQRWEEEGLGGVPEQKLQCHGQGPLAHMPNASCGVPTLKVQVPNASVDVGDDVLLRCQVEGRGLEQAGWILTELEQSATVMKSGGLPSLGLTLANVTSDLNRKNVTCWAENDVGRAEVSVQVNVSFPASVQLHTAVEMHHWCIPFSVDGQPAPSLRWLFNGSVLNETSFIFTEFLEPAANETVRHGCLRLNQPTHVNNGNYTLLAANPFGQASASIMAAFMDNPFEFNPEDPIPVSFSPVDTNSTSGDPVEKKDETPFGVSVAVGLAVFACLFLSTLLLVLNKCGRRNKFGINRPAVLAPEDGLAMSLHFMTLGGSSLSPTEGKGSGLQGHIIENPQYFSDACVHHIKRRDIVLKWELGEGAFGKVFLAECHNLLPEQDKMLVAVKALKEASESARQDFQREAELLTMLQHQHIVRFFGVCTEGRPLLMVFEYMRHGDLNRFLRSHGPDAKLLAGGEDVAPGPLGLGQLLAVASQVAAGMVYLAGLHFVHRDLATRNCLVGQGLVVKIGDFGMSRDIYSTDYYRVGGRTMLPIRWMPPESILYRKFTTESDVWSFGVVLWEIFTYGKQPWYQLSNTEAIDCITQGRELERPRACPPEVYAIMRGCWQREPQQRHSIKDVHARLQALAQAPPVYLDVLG
T10 sequence (P06239 whole entry): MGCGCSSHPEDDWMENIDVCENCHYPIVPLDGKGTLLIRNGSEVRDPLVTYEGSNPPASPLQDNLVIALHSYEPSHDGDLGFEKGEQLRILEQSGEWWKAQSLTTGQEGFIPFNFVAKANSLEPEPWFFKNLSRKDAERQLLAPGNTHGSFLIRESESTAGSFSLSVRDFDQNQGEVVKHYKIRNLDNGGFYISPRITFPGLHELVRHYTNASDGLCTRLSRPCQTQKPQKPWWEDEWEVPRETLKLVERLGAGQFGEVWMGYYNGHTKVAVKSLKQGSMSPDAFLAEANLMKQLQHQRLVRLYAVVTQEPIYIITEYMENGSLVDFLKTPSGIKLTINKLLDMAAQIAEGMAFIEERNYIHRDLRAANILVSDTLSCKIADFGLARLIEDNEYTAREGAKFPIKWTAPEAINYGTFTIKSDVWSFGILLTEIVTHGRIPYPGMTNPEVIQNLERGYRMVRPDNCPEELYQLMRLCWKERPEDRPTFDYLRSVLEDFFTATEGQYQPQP
T11 sequence (P10721 26-976): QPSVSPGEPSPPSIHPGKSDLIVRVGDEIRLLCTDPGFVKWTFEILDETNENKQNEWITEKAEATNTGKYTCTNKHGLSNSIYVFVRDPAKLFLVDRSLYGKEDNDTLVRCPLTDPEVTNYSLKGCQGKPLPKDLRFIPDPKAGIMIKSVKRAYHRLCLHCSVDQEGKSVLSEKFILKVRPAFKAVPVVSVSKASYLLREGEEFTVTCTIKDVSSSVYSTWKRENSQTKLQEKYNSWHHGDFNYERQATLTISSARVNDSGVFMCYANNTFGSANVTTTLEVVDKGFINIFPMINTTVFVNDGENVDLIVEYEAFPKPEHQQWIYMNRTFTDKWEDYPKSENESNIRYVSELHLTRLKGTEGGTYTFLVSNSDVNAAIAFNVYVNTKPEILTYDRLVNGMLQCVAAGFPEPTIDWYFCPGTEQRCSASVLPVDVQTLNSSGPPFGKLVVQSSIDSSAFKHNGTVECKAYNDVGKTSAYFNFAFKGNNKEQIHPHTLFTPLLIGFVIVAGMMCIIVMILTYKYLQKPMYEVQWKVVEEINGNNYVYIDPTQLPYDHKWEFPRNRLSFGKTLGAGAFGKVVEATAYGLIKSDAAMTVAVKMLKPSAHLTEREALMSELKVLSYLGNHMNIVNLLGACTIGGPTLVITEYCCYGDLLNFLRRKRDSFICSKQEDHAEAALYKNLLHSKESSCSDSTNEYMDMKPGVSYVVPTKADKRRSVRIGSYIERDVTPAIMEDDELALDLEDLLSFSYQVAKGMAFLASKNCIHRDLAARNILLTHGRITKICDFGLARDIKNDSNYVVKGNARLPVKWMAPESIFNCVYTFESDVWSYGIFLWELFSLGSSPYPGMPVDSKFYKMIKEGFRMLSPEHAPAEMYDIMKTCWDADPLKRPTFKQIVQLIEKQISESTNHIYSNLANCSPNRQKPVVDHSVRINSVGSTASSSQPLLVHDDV
Chain of Aurora B (Q96GD4 whole entry): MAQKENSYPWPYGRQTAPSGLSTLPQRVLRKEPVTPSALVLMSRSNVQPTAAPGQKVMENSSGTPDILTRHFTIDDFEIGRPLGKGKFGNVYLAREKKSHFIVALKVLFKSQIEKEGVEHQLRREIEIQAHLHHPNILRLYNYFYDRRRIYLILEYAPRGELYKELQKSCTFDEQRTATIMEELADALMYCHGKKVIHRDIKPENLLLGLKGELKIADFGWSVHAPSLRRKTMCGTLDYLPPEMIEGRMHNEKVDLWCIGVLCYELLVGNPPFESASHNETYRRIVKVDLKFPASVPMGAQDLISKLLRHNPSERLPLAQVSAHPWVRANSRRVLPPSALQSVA
Chain of VEGF-R2 (P35968 20-1356): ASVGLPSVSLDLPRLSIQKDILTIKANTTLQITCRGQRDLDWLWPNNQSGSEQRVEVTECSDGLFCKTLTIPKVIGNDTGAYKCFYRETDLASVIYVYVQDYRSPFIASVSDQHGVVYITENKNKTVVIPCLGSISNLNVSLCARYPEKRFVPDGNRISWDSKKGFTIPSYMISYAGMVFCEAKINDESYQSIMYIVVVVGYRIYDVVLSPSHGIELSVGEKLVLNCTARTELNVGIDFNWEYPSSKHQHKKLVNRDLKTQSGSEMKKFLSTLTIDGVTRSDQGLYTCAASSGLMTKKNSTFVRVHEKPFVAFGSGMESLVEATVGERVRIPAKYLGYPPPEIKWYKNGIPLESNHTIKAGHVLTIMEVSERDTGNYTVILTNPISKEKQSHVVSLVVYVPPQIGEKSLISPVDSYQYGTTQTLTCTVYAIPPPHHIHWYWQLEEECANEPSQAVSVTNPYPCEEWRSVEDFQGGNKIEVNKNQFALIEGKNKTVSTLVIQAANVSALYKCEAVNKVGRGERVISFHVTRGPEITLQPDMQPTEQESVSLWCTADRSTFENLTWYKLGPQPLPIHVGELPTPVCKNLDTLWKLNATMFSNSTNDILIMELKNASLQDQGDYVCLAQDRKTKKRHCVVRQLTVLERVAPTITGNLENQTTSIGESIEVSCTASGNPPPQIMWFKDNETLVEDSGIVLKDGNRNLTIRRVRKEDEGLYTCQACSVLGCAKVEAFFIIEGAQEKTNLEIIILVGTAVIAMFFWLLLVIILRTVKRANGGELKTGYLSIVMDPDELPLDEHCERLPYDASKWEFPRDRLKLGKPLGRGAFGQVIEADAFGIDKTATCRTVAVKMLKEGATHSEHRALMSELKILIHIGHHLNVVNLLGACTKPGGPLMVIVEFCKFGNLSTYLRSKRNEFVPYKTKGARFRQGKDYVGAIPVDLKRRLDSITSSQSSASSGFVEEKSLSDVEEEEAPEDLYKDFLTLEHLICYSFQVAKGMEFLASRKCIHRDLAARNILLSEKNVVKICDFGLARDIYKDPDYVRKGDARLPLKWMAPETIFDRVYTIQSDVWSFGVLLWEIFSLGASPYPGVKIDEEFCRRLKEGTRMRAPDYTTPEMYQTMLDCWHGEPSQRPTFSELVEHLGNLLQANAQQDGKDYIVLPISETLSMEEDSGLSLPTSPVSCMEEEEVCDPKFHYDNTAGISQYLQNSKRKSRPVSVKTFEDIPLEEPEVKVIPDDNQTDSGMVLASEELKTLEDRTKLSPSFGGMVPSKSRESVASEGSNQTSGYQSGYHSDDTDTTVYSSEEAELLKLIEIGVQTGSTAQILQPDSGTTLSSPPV

Turning to `COc1cc2c(Nc3ncc(CCC(=O)Nc4ccc(F)cc4)s3)ncnc2cc1OCCCN1CCCC1` [Compound 9, N-(4-fluorophenyl)-3-(2-(6-methoxy-7-(3-(pyrrolidin-1-yl)propoxy)quinazolin-4-ylamino)thiazol-5-yl)propanamide], the IC50 on VEGF-R2 amounted to 96 nM; on PDGF-Rβ it was 1100 nM; at Aurora B, 470 nM; on VEGF-R3 it was 110 nM; on IRAK4, 2200 nM; at TRK-A it was 430 nM. Moreover, the IC50 at TIE2 amounted to 430 nM; on EGF-R, 10000 nM; at RET it was 880 nM; on PDGF-Rα it was 1000 nM; on VEGF-R1, 640 nM; on Aurora A, 710 nM. Further, the IC50 at LCK was 2300 nM; at KIT it was 110 nM; at FLT3 it was 600 nM.

Broadly, the IC50 is the concentration that inhibits the measured activity by half.
